Ki and inhibition data for 13 compounds are collected here from patent US12247028B2, “Azabicyclo and diazepine derivatives” (Alcon Inc., priority 2017, dated 2025).

Read-outs that look alike come from different tables or passages of the source. Some results are limits rather than exact numbers.

The target in experiment [1] is T1, Human muscarinic receptor M1 (Homo sapiens, UniProt P11229).
T1 construct: host or cells: cell membrane homogenates
T1 sequence (P11229 1-460): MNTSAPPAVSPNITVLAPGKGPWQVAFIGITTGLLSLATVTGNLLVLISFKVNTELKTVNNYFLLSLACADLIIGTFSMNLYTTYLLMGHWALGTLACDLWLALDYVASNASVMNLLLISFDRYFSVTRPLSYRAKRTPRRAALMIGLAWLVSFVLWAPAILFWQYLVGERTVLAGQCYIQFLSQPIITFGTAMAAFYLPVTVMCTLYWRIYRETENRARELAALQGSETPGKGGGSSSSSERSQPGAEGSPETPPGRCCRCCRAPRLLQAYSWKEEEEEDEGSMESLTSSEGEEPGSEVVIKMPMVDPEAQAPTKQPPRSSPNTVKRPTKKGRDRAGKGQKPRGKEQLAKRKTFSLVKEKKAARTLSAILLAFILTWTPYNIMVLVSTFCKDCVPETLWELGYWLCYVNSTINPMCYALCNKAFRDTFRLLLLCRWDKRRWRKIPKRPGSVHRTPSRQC
In words: Human muscarinic receptor assay M1, [3H]pirenzepine binding. To be noted: 2 nM [3H]pirenzepine, cell membrane homogenates. On the procedure: (§1) Human Muscarinic Receptor Assay
(§2) Cell membrane homogenates (45 μg protein) are incubated for 60 min at 22° C. with 2 nM [3H]pirenzepine in the absence or presence of the test compound in a buffer containing 50 mM Tris-HCl (pH 7.4), 120 mM NaCl, 5 mM KCl, 5 mM MgCl2 and 1 mM EDTA. Nonspecific binding is determined in the presence of 1 μM atropine. Following incubation, the samples are filtered rapidly under vacuum through glass fiber filters (GF/B, Packard) presoaked with 0.3% PEI and rinsed several times with ice-cold 50 mM Tris-HCl using a 96-sample cell harvester (Unifilter, Packard). The filters are dried then counted for radioactivity in a scintillation counter (Topcount, Packard) using a scintillation cocktail (Microscint 0, Packard). The results are expressed as a percent inhibition of the control radioligand specific binding. The standard reference compound is pirenzepine, which is tested in each experiment at several concentrations to obtain a competition curve from which its Ki and IC50 are calculated.

The target of experiment [2] is T2, Human muscarinic receptor M2 (Homo sapiens, UniProt P08172).
T2 construct: host or cells: cell membrane homogenates
T2 sequence (P08172 1-466): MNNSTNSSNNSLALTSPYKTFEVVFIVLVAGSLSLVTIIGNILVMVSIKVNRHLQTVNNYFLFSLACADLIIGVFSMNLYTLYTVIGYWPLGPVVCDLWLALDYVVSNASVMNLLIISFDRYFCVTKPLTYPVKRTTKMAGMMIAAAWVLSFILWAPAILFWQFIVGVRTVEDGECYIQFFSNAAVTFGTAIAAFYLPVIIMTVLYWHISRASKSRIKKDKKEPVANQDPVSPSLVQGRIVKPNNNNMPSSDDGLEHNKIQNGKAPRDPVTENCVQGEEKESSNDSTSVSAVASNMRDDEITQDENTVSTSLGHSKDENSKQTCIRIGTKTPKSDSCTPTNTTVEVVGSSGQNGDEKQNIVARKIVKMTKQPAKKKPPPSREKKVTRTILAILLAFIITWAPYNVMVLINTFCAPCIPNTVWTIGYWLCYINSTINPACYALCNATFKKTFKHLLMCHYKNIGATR
Put plainly: Human muscarinic receptor assay M2, [3H]AF-DX 384 binding. To be noted: for inhibition at 1 µM: read-out: percent inhibition of the control radioligand specific binding, M2. On the procedure: as §1
as §2, with “(60” for “(45”, “[3H]AF-DX 384” for “[3H]pirenzepine”, “methoctramine,” for “pirenzepine,”

Experiment [3] concerns the target T3, Human muscarinic receptor M5 (Homo sapiens, UniProt P08912).
T3 construct: host or cells: cell membrane homogenates
T3 sequence (P08912 1-532): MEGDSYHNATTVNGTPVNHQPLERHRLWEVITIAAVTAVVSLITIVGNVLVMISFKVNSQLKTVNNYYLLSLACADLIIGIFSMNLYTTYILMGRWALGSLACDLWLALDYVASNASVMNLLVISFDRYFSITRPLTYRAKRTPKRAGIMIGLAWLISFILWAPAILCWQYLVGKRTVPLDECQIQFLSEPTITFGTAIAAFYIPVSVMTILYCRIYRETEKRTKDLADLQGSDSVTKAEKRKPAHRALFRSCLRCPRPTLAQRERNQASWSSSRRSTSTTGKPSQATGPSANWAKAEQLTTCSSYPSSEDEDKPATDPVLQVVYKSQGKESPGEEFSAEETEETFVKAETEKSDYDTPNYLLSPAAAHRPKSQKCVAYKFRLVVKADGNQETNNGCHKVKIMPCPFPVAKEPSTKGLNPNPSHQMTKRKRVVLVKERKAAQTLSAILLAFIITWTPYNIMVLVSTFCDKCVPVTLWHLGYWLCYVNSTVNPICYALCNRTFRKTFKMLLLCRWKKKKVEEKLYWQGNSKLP
In words: Human muscarinic receptor assay M5, [3H]4-DAMP binding. On the procedure: as §1
Cell membrane homogenates (15 μg protein) are incubated for 60 min at 22° C. with 0.3 nM [3H]4-DAMP in the absence or presence of the test compound in a buffer containing 10 mM Tris-HCl (pH 7.4) and 2 mM EDTA. Nonspecific binding is determined in the presence of 1 μM atropine. Following incubation, the samples are filtered rapidly under vacuum through glass fiber filters (GF/B, Packard) presoaked with 0.3% PEI and rinsed several times with ice-cold 50 mM Tris-HCl using a 96-sample cell harvester (Unifilter, Packard). The filters are dried then counted for radioactivity in a scintillation counter (Topcount, Packard) using a scintillation cocktail (Microscint 0, Packard). The results are expressed as a percent inhibition of the control radioligand specific binding. The standard reference compound is 4-DAMP, which is tested in each experiment at several concentrations to obtain a competition curve from which its Ki and IC50 are calculated.

The mark [4] stands for this setting: 0.3 nM [3H]4-DAMP, cell membrane homogenates, read-out: Ki M5.

Turning to `CN1C2CCC1CC(NC(=O)C(C)(CO)c1ccccc1)C2` (stereo not drawn), the Ki came out at 230 nM in experiment [1] and 52 nM in experiment [3]. Moreover, the inhibition at 1 µM in experiment [2] was < 50%.
As to `CCC(CO)(C(=O)OC1CC2CCC(C1)N2C)c1ccccc1` (stereo not drawn), the Ki was 4.4 nM in experiment [1], 35 nM in experiment [2] and 1.1 nM in experiment [3].
Regarding `CN1C2CCC1CC(OC(=O)C(C)(CF)c1ccccc1)C2` (stereo not drawn), the Ki in experiment [1] came out at 27 nM; in experiment [2], 110 nM; in experiment [3], 7.2 nM.
The matching figures for `CN1C2CCC1CC(OC(=O)C(CO)(CC1CC1)c1ccccc1)C2` (stereo not drawn): 3.4 nM, 39 nM and 0.99 nM.
In the same order, the values of `CN1C2CCC1CC(OC(=O)C(C)(CO)c1ccccc1)C2` (stereo not drawn) are 3.1 nM, 11 nM and 0.68 nM.
In the same order, the values of `CN1C2CCC1CC(OC(=O)C(F)(CO)c1ccccc1)C2` (stereo not drawn) are 3.5 nM, 15 nM and 0.71 nM.
On to `COc1ccc(CC(CO)(C(=O)OC2CC3CCC(C2)N3C)c2ccccc2)cc1` (stereo not drawn), for which the Ki in experiment [1] was 570 nM; in experiment [3] (setting [4]) it was 320 nM. For the same compound, in experiment [2], the inhibition at 1 µM was < 50%.
Take `CN1C2CCC1CC(OC(=O)C(CO)(CC(F)(F)F)c1ccccc1)C2` (stereo not drawn): the Ki in experiment [1] stood at 8.2 nM; in experiment [2] (2 nM [3H]AF-DX 384, cell membrane homogenates, read-out: Ki M2), 240 nM; in experiment [3], 1.9 nM.
On to `CN1C2CCC1CC(OC(=O)C(CO)(CO)c1ccccc1)C2` (stereo not drawn), for which the values for the Ki in experiment [1], in experiment [2] and in experiment [3] were 17 nM, 54 nM and 4.5 nM, respectively.
For `CN1C2CCC1CC(OC(=O)C(CO)(Cc1ccccc1)c1ccccc1)C2` (stereo not drawn), the figures for the Ki in experiment [1] and in experiment [3] (setting [4]) were 600 nM and 280 nM, respectively. For the same compound, the inhibition at 1 µM in experiment [2] is < 50%.
For `CN1C2CCC1CC(OC(=O)C(CO)(Cc1ccc(F)cc1)c1ccccc1)C2` (stereo not drawn), the Ki in experiment [1] is 300 nM; in experiment [3] it was 160 nM. The inhibition at 1 µM in experiment [2] is < 50%.
For the compound `COCC(C)(C(=O)OC1CC2CCC(C1)N2C)c1ccccc1` (stereo not drawn), the Ki was determined as 19 nM in experiment [1], 72 nM in experiment [2] and 8.5 nM in experiment [3].
The matching figures for `CN1C2CCC1CC(OC(=O)C(C)(CO)c1cccs1)C2` (stereo not drawn): 2.5 nM, 7.9 nM and 0.71 nM.

Broadly, the Ki is the dissociation constant of the complex between target and ligand, obtained from inhibition or displacement. By inhibition is commonly meant how much of the control response was suppressed.
